Results on 5 compounds are retold here after patent US20110263694A1, “Use of Xanthone Derivatives as a Medicament for Cancer” (MUSEUM NATIONAL D'HISTOIRE NATURELLE, priority 2008, published 2011).

By IC50 is commonly meant the midpoint of a concentration-inhibition curve.

One data set deals with Plasmodium. As to conditions: literature; cited from earlier work.
Data set [1] concerns human A375 melanoma cell line. Conditions: Azebaze et al 2006; cited from earlier work.
The subject of another data set is B-CLL cells. As to the kind of experiment: MTT viability of freshly isolated B-CLL cells. In kind it is cell-based, human. As to conditions: FIG. 3, 6 B-CLL patients. On the procedure:
FIG. 3: The effect of the molecules M1, M2, M4, M5 and M6 on the viability of B-CLL cells was determined. Tumour cells freshly isolated from B-CLL patients were suspended at 2×10^6/ml in complete RPMI-1640 medium and incubated for 48 hours in the presence or absence of either 1 μg/ml (black bars) or 10 μg/ml (gray bars) of the various molecules. MTT was incorporated into the cells during the last 5 hours of incubation and the viability was measured by recording the formation of the formazan precipitate as described in the Examples section. The results are expressed as the percentage of the viability of the treated cells in comparison with control cells incubated with medium alone taken as 100% and represent the mean±SE of 6 B-CLL patients.
Blood samples from B-CLL patients were obtained from the Haematology Department of Hôtel-Dieu hospital (Paris, France) after written informed consent, in accordance with the rules and tenets of the revised Helsinki protocol. Diagnosis was established according to standard clinical and international CLL workshop criteria, including lymphocyte morphology and co-expression of CD5, CD20 and CD23 antigens. A total of 12 patients (6 men and 6 women) with an age ranging 50-84 years (mean±SD: 68±8.8 years) were selected and the time since diagnosis varied between 0 (newly diagnosed patients) and 10 years. The patients were randomly chosen for each type of experiment inasmuch as CD38 and ZAP-70 expression, cytogenetic analysis and mutational VH status were only available for a fraction of them, thus hampering a risk-group analysis. The leukemia B-cells were isolated with purity greater than 96%, as previously described (Zhao et al, Blood 1998; 92: 1031-1043). All the experiments were performed with freshly purified B-CLL leukemia cells.
M1, M2, M4, M5 and M6 were thus tested for their possible action on the viability of these leukemia cells by the MTT assay that relies on the integrity of the mitochondrial succinyl dehydrogenase.
(§1) Leukemia cells from B-CLL patients were adjusted at 2×10^6/ml and 200 μl aliquots were distributed in triplicate samples in the wells of a 96-well microtitration plate and cultured in the absence or presence of the various reagents. After 18 hours of incubation at 37° C. in a humidified atmosphere containing 5% CO2, 20 μl of a 5 mg/ml solution of MTT (Sigma, St Louis, Mo., USA) were added to the wells for an additional 6 hours incubation. The microplates were centrifuged at 400×g for 20 min, the supernatants carefully discarded and 200 μl of DMSO were added to the wells to dissolve the precipitates of formazan. The optical density was measured with the use of a microplate reader (Victor-2, Wallac, Perkin Elmer, Norwalk, Mont., USA) at the wavelength of 540 nm.

The test system of data set [2] is ESKOL cells. As to the kind of experiment: Enrichment in cytoplasmic nucleosomes (DNA cleavage) in ESKOL cells. In kind it is cell-based, human. Conditions: 2 days, 1 or 10 μg/ml; FIG. 2B. On the procedure: B/ The percentage of enrichment in cytoplasmic nucleosomes was evaluated simultaneously as a surrogate for DNA cleavage.
The detection of cytoplasmic histone-associated DNA fragments (mono- and oligonucleosomes) was performed in cell lysates from aliquots of 20,000 cells using an ELISA with anti-histone and anti-DNA fragment mAbs (Cell Death Detection ELISA^PLUS, Roche Diagnostics, Indianapolis, Ind., USA) as previously described (Billard et al, Leuk Lymphoma 2002; 43: 1991-2002).

Data set [3] concerns ESKOL cells. In words: Annexin V-FITC labelling of ESKOL cells (phosphatidylserine externalisation, flow cytometry). It is filed as cell-based, human. Conditions: 1 μg/ml, 24 hours; for % Annexin V+ cells: ESKOL cells, after subtraction of control value. From the text:
The induction of apoptosis was further confirmed by assessing the percentage of cells expressing phosphatidylserine at the outer leaflet of the plasma membrane by flow cytometry.
The phosphatidylserine (PS) externalisation, a membrane marker of cells undergoing apoptosis, was quantified by specific binding of FITC-conjugated annexin V (Bender Medsystems, Vienna, Austria), with or without simultaneous labelling with propidium iodide (PI), according to a modification of the technique described by Koopman (Koopman et al, Blood 1994; 84:1415-1420). The percentages of annexin V-FITC positive and PI negative cells were determined by cytometry on an EPICS Altra flow cytometer (Beckman Coulter).
The ESKOL cells (10^6/ml) were cultured in the absence (C=control) or the presence of 1 μg/ml of the various Allanblackia molecules. After 24 hours of incubation, the percentage of cells labelled with Annexin V-FITC was measured by flow cytometry as previously indicated. Results are expressed after subtraction of the value for control unstimulated cells. P values were estimated by Kolmogorov-Smirnov analysis using the Statview software.
For orientation: Flow cytometry measures light scatter and fluorescence of single cells or particles in a stream.

Data set [4] concerns ESKOL cells. As to the kind of experiment: Antiproliferative effect on ESKOL cells (viable cell count, Coulter counter). It is filed as cell-based, human. As to conditions: 1 and 10 μg/ml; 1, 2 or 4 days; FIGS. 1A and 1B. The protocol: FIG. 1: The antiproliferative effects of M1, M2, M4, M5 and M6 were compared as indicated in the Examples Section on ESKOL cells. ESKOL cells were seeded at 2×10^5 cells/ml in the wells of micro-titration plate in the presence or absence (medium alone: ◯, DMSO: […]) of M1 (□), M2 (▪), M4 (▴), M5 ([…]), M6 (◯) at the concentrations of 1 μg/ml (A) and 10 μg/ml (B). After various times of incubation (1, 2 or 4 days), aliquots were harvested and the concentration of viable cells was measured in a Coulter counter as indicated in the examples.
The anti-proliferative effects of the isolated molecules were investigated on the ESKOL cell line derived from a hairy cell leukemia patient, a chronic B cell malignancy (Harvey et al, Leuk Res. 1991; 15: 733-744).
Cells were routinely cultured at seeding densities of 2×10^6 cells/ml in RPMI-1640 medium supplemented with 2 mM glutamine, 1 mM sodium pyruvate, 100 IU/ml penicillin, 100 μg/ml streptomycin and 10% FCS (PAA Laboratories, Pasching, Austria) and cultures were performed at 37° C. in an humidified atmosphere containing 5% CO2.
For the assay, ESKOL cells were seeded at 2×10^5/ml in 24-well microtitration plate, together with two concentrations (1 and 10 μg/ml) of the […] xanthones or 1% DMSO (solvent) as control. After 1, 2 and 4 days of culture, aliquots of cells were collected and the cell concentration was evaluated by counting the number of viable cells with a Coulter Multisizer counter Z2 (Coultronics, Margency, France) allowing the discrimination between viable and dead cells and debris according to size distribution.
Cells were cultured in duplicates or triplicates and each experiment repeated 2 to 5 times.

The next data set relates to normal PBMC. In words: MTT cytotoxicity on normal PBMC. It is filed as cell-based, human. Conditions: 5 or 10 μg/ml, 48 hours; FIG. 5B. The protocol:
(§2) FIG. 5: The effect of the compounds M1, M2, M4, M5 and M6 on the viability and apoptosis of normal lymphocytes was evaluated as indicated in the Examples section. A/ PBMC isolated from the blood of normal volunteers were incubated at 2×10^6/ml for 48 hours in the presence of medium alone (grey bar) or containing 1 μg/ml (black bar) or 10 μg/ml (slashed bars) of the different compounds. At the end of the incubation time, the percentage of enrichment in cytoplasmic nucleosomes was evaluated as indicated in the Examples Section. PBMC (A) and purified B lymphocytes (C) from normal blood donors were incubated for 48 hours with medium alone (grey bar) or containing 5 μg/ml (black bar) or 10 μg/ml (slashed bar) of the selected reagents M1, M2, M4 and M6. Viability was estimated after labelling the cells with a 5 hours pulse of MTT and determination of the absorbance at 540 nm as indicated in the Examples Section.
as §1
(§3) Blood samples from healthy donors were obtained from the Institut Francais du Sang as residues from platelet preparations. The healthy blood donors were under 60 years old, according to the French legislation, and therefore they could not be exactly age-matched with the B-CLL patients. PBMC were prepared as described elsewhere (Zhao et al, Blood 1998; 92: 1031-1043) and normal B-lymphocytes were purified by positive selection on anti-CD19-coated magnetic beads according to the specifications of the manufacturer (Dynal, Oslo, Norway) (Kern et al, Blood 2004; 103: 679-688). Their purity usually ranged from 92% to 95%, as estimated by labelling with an anti-CD20-phycoerythrin (PE) antibody, and monocyte contamination never exceeded 2% (Kern et al, Blood 2004; 103: 679-688).

In the next data set the test system is purified B-lymphocytes. As to the kind of experiment: MTT cytotoxicity on purified normal B-lymphocytes. It is filed as cell-based, human. As to conditions: 5 or 10 μg/ml, 48 hours; FIG. 5C. The protocol:
as §2, §1, §3

Data set [5] deals with human A549 lung cancer cells. Conditions: Lee et al 2005, read-out: IC50 cytotoxic activity; cited from earlier work.
Data set [6] deals with SK-OV3 ovarian cancer cells. Conditions: Lee et al 2005, read-out: IC50 cytotoxic activity; cited from earlier work.

Take allanxanthone C [M4]: in the data set with Plasmodium, the antiplasmodial activity result is reported as “displays antiplasmodial activity”. For the same compound, in data set [1], the “cytotoxicity on A375 cell line” value is given as “cytotoxicity”.

Consider `CC(C)=CCC/C(C)=C/Cc1c(O)c(O)cc2oc3cc(O)c(CC=C(C)C)c(O)c3c(=O)c12` [M5, norcowanin], for which the antiplasmodial activity result in the data set with Plasmodium is on record as “antiplasmodial activity”. For the same compound, the “viability of B-CLL cells (MTT)” value in the data set with B-CLL cells (1 μg/ml) is given as “no significant effect”. In the data set with B-CLL cells (10 μg/ml), the “viability of B-CLL cells (MTT)” value was “marked reduction in the viability”. The “cytotoxicity on A375 cell line” value in data set [1] is listed as “weak cytotoxicity”. In addition, in the data set on ESKOL cells [2], the “DNA breakdown (enrichment in cytoplasmic nucleosomes) in ESKOL cells” value (from here on “DNA breakdown”) is “potent inducers of DNA breakdown”. Moreover, in the data set with ESKOL cells [3], the “increase in the percentage of Annexin V positive ESKOL cells (in words)” value (“increase in the percentage” below) is “to a lesser degree” and the “% Annexin V+ cells” value amounted to 9.4%. In the data set on ESKOL cells [4], the “proliferation of ESKOL cells” value was “markedly and dose-dependently slowed down the proliferation”.

As for `COc1ccc2oc3cc(O)c(CC=C(C)C)c(O)c3c(=O)c2c1` [M1, 1,3 dihydroxy-7-methoxy-2(3-methylbut-2enyl)xanthone], the “viability of B-CLL cells (MTT)” value with B-CLL cells (1 μg/ml) is recorded as “no significant effect”; in the data set on B-CLL cells (10 μg/ml) it was “marked reduction in the viability”. Moreover, in the data set on normal PBMC, the “cytotoxic effect on normal PBMC (MTT)” value is recorded as “no toxic effect”. In addition, the “% Annexin V+ cells” value in the data set on ESKOL cells [3] turned out to be 5.6%. The “proliferation of ESKOL cells” value in the data set on ESKOL cells [4] was “markedly and dose-dependently slowed down the proliferation”. In the data set with purified B-lymphocytes, the “cytotoxic effect on purified normal B-lymphocytes (MTT)” value is listed as “no toxic effect”.

As to `CC(C)=CCc1c(O)cc2oc3c(c(=O)c2c1O)C(CC=C(C)C)(CC=C(C)C)C(=O)C(O)=C3` [M4, allanxanthone C], the “viability of B-CLL cells (MTT)” value with B-CLL cells (1 μg/ml) is recorded as “no significant effect”. For the same compound, in the data set on B-CLL cells (10 μg/ml), the “viability of B-CLL cells (MTT)” value was “marked reduction in the viability”. Moreover, the “DNA breakdown” value in the data set on ESKOL cells [2] is on record as “potent inducers of DNA breakdown”. Moreover, in the data set on normal PBMC, the “cytotoxic effect on normal PBMC (MTT)” value is recorded as “no toxic effect”. In the data set on ESKOL cells [3], the “increase in the percentage” value was “to a lesser degree” and the “% Annexin V+ cells” value amounted to 10.2%. Moreover, the “proliferation of ESKOL cells” value in the data set on ESKOL cells [4] is “markedly and dose-dependently slowed down the proliferation”. The “cytotoxic effect on purified normal B-lymphocytes (MTT)” value in the data set on purified B-lymphocytes was “no toxic effect”.

For `C=CC(C)(C)c1c2c(c(O)c3c(=O)c4ccc(O)c(O)c4oc13)C=CC(C)(C)O2` [M6, Macluraxanthone], the IC50 in data set [5] was 2.88 µM; in data set [6], 4.24 µM. For the same compound, the “viability of B-CLL cells (MTT)” value is recorded as “no significant effect” in the data set on B-CLL cells (1 μg/ml) and “marked reduction in the viability” in the data set on B-CLL cells (10 μg/ml). In the data set on ESKOL cells [2], the “DNA breakdown” value was “potent inducers of DNA breakdown”. Also, the “cytotoxic effect on normal PBMC (MTT)” value in the data set with normal PBMC was “somewhat sensitive”. For the same compound, the “increase in the percentage” value in the data set on ESKOL cells [3] is “significant increase”. For the same compound, the “% Annexin V+ cells” value in the data set with ESKOL cells [3] was determined as 36.5%. In addition, the “proliferation of ESKOL cells” value with ESKOL cells [4] was “markedly and dose-dependently slowed down the proliferation”. Also, in the data set with purified B-lymphocytes, the “cytotoxic effect on purified normal B-lymphocytes (MTT)” value was “somewhat sensitive”.
